# Measurements taken from publication PMC6979384, “Characterization of the plant homeodomain (PHD) reader family for their histone tail interactions” (Epigenetics & Chromatin, 2020).
# Experiments:
# Assay in all cases: Histone peptide microarray
# Type in all cases: binding, human
# AIRE (PP) = settings: AIRE (PP); sheet "Array Heatmap"; each array performed twice, total n = 4
# In short: (§1)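 Each reader, produced as a GST fusion and purified, was tested at 0.5 μM on synthetic histone peptides (293 in total) carrying single or combinatorial marks. Intensities averaged over four replicates.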
# RAG2 = settings: RAG2; sheet "Array Heatmap"; each array performed twice, total n = 4
# In short: as §1
# TRIM66 (PB) = settings: TRIM66 (PB); sheet "Array Heatmap"; each array performed twice, total n = 4
# In short: as §1
# KDM4C (TTP) = settings: KDM4C (TTP); sheet "Array Heatmap"; each array performed twice, total n = 4
# In short: as §1
# ING3 = settings: ING3; sheet "Array Heatmap"; each array performed twice, total n = 4
# In short: as §1
# BAZ2B = settings: BAZ2B; sheet "Array Heatmap"; each array performed twice, total n = 4
# In short: as §1
# BPTF (PB) = settings: BPTF (PB); sheet "Array Heatmap"; each array performed twice, total n = 4
# In short: as §1
# DPF2 (PPC2W2) = settings: DPF2 (PPC2W2); sheet "Array Heatmap"; each array performed twice, total n = 4
# In short: as §1
# PHRF1 (RP) = settings: PHRF1 (RP); sheet "Array Heatmap"; each array performed twice, total n = 4
# In short: as §1
# PHF23 = settings: PHF23; sheet "Array Heatmap"; each array performed twice, total n = 4
# In short: as §1
# MORC3 (CW) = settings: MORC3 (CW); sheet "Array Heatmap"; each array performed twice, total n = 4
# In short: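 Purified PHD finger domains fused to GST are screened against 293 synthetic histone peptides bearing one or several post-translational modifications. The protein is used at 0.5 μM, and the signal from four replicate arrays is averaged, with standard deviation given.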
# TAF3 = settings: TAF3; sheet "Array Heatmap"; each array performed twice, total n = 4
# In short: as §1
# PHF13 = settings: PHF13; sheet "Array Heatmap"; each array performed twice, total n = 4
# In short: as §1
# CHD4 (PPCC) = settings: CHD4 (PPCC); sheet "Array Heatmap"; each array performed twice, total n = 4
# In short: as §1
# KDM5A (1) = settings: KDM5A (1); sheet "Array Heatmap"; each array performed twice, total n = 4
# In short: as §1
# PHF2 = settings: PHF2; sheet "Array Heatmap"; each array performed twice, total n = 4
# In short: as §1
# KDM5A (3) = settings: KDM5A (3); sheet "Array Heatmap"; each array performed twice, total n = 4
# In short: as §1
# PHF21A = settings: PHF21A; sheet "Array Heatmap"; each array performed twice, total n = 4
# In short: as §1
# KDM5B (3) = settings: KDM5B (3); sheet "Array Heatmap"; each array performed twice, total n = 4
# In short: as §1
# SP140L = settings: SP140L; sheet "Array Heatmap"; each array performed twice, total n = 4
# In short: as §1
# ING5 = settings: ING5; sheet "Array Heatmap"; each array performed twice, total n = 4
# In short: as §1
# CHD5 (PPCC) = settings: CHD5 (PPCC); sheet "Array Heatmap"; each array performed twice, total n = 4
# In short: as §1
# ING1 = settings: ING1; sheet "Array Heatmap"; each array performed twice, total n = 4
# In short: as §1
# ING2 = settings: ING2; sheet "Array Heatmap"; each array performed twice, total n = 4
# In short: as §1
# DIDO1 = settings: DIDO1; sheet "Array Heatmap"; each array performed twice, total n = 4
# In short: as §1
# ING4 = settings: ING4; sheet "Array Heatmap"; each array performed twice, total n = 4
# In short: as §1
# KDM5B (1) = settings: KDM5B (1); sheet "Array Heatmap"; each array performed twice, total n = 4
# In short: as §1
# CHD5 (PCC) = settings: CHD5 (PCC); sheet "Array Heatmap"; each array performed twice, total n = 4
# In short: as §1
# PHF8 = settings: PHF8; sheet "Array Heatmap"; each array performed twice, total n = 4
# In short: as §1
# KDM7A = settings: KDM7A; sheet "Array Heatmap"; each array performed twice, total n = 4
# In short: as §1
# MLL5 = settings: MLL5; sheet "Array Heatmap"; each array performed twice, total n = 4
# In short: as §1
substance,measurement,setting,value
H3.3K27vl (15-34): H3.3 15-34,Array Heatmap value (peptide array signal),AIRE (PP),0.3881
same,Array Heatmap value (peptide array signal),RAG2,0.2413
same,Array Heatmap value (peptide array signal),TRIM66 (PB),0.5686
same,Array Heatmap value (peptide array signal),KDM4C (TTP),0.4488
same,Array Heatmap value (peptide array signal),ING3,0.4849
same,Array Heatmap value (peptide array signal),BAZ2B,0.4362
same,Array Heatmap value (peptide array signal),BPTF (PB),0.3408
same,Array Heatmap value (peptide array signal),DPF2 (PPC2W2),0.6907
same,Array Heatmap value (peptide array signal),PHRF1 (RP),0.4435
same,Array Heatmap value (peptide array signal),PHF23,0.5229
same,Array Heatmap value (peptide array signal),MORC3 (CW),0.3607
same,Array Heatmap value (peptide array signal),TAF3,0.2402
same,Array Heatmap value (peptide array signal),PHF13,0.5845
same,Array Heatmap value (peptide array signal),CHD4 (PPCC),0.5729
same,Array Heatmap value (peptide array signal),KDM5A (1),0.4391
same,Array Heatmap value (peptide array signal),PHF2,0.5263
same,Array Heatmap value (peptide array signal),KDM5A (3),0.423
same,Array Heatmap value (peptide array signal),PHF21A,0.4671
same,Array Heatmap value (peptide array signal),KDM5B (3),0.4603
same,Array Heatmap value (peptide array signal),SP140L,0.3739
same,Array Heatmap value (peptide array signal),ING5,0.3413
same,Array Heatmap value (peptide array signal),CHD5 (PPCC),0.5207
same,Array Heatmap value (peptide array signal),ING1,0.5627
same,Array Heatmap value (peptide array signal),ING2,0.6055
same,Array Heatmap value (peptide array signal),DIDO1,0.7045
same,Array Heatmap value (peptide array signal),ING4,0.4471
same,Array Heatmap value (peptide array signal),KDM5B (1),0.5524
same,Array Heatmap value (peptide array signal),CHD5 (PCC),0.7909
same,Array Heatmap value (peptide array signal),PHF8,0.3696
same,Array Heatmap value (peptide array signal),KDM7A,0.3156
same,Array Heatmap value (peptide array signal),MLL5,0.5405
